From patent US6225478A, “Iridoid derivatives and neovascularization inhibitors containing the same as active ingredient” (Tsumura & Co., priority 1999, dated 2001)
≈ marks a conversion by molar mass, not a printed value.

Assays:
Type in all cases: cell-based
[1] = test system: human umbilical-vein endothelial cells (HUVEC); experiment: Cell Proliferation Assay (CPA) Test, HUVEC, MTT; details: Homo sapiens, M199 (2+) medium, read-out: CPA (IC50 μg/ml)
Experimental: (§1) Furthermore, the sample liquids of compounds used in the CPA and CMA tests were prepared in the manner described below. Firstly, after weighing out each compound, a calculated amount of DMSO was added. After dissolving the compound in the DMSO, phosphate buffered physiological saline (PBS (-)) was added to bring the sample concentration to 1 mg/ml in PBS (-). The amount of DMSO used to dissolve the compounds was adjusted in advance to that the concentration of DMSO at that time was 5%. The resulting liquids were diluted 10-fold with 5% DMSO-PBS (-) solution to prepare sample solutions having a concentration of 0.1 mg/ml. In the TFA test, 320 μl of the prepared 1 mg/ml sample solutions were removed followed by addition of 680 μl of PBS (-) to prepare samples having a concentration of […]. Moreover, 100 μl of this solution was removed followed by addition of 900 μl of PBS (-) to dilute 10-fold and prepare samples having a concentration of 1 μg/ml. P [Cell Proliferation Assay (CPA) Test]
100 μl of the 7th subculture obtained from first generation human umbilical-vein endothelial cells (HUVEC) were disseminated in the wells (N=3) of a 96-well plate (Iwaki, Cat. #4860-010) at a cell concentration of 5×10^4 cells/ml. M-199 medium containing +20% FCS, 10 ng/ml of b-FGF and 10 ng/ml of EGF (abbreviated as "M199 (2+)") was used for the medium.
After culturing for 24 hours at 37° C. in the presence of 5% CO2 under the above conditions, 20 μl/well of MTT solution (solution containing 5 mg/ml of PBS (-)) were added to the control well followed by accurately culturing for 4 hours at 37° C. in the presence of 5% CO2. Following completion of culturing, 100 μl/well of a stop solution (0.001 N aqueous HCl solution containing 10% SDS) were added. On the other hand, 10 μl/well of sample solutions at concentrations of 1 mg/ml and 0.1 mg/ml were added to the other wells.
After culturing for 24 hours at 37° C. in the presence of 5% CO2, the medium was replaced and 100 μl/well of M199 (2+) were added. The samples were also replaced in each well at this time.
Moreover, after additionally culturing for 48 hours at 37° C. in the presence of 5% CO2, 20 μl/well of MTT solution were added to the wells containing sample and the control well followed by accurately culturing for 4 hours at 37° C. and adding 100 μl/well of stop solution.

[2] = test system: human umbilical-vein endothelial cells (HUVEC); experiment: Cell Migration Assay (CMA) Test, HUVEC (% relative to control); details: Homo sapiens, HUVEC, 24 hours, 60% or less = remarkable inhibition, read-out: CMA (% relative to control); for activity at 1 µg/mL: 1 μg/ml; for activity at 10 µg/mL: 10 μg/ml
Experimental: as §1
After disseminating the 7th subculture of HUVEC obtained from the first generation in the same manner as above at 4 ml/well (3.0×10^5 cells/well) in a collagen-coated 6-well plate (NUNC), the cells were cultured for 48 hours at 37° C. in the presence of 5% CO2. The cells reached nearly a completely confluent state as a result of this culturing.
A double-edged, disposable razor blade was divided into four sections, of which one of those sections was pinched between a pair of forceps. Using this piece of razor blade, the cell surface in the above confluent state was scraped off. Two areas of the cell surface were scraped off in each well.
After washing the surface of the wells from which the cells had been scraped off with medium, 4.0 ml of fresh M199 (2+) medium were added followed by addition of 40 μl or 4 μl of sample solution (1 mg/ml). The cells were cultured for 24 hours at 37° C. in the presence of 5% CO2. After discarding the culture liquid, the cells were fixed for 30 minutes with methanol. Next, after staining the cells for 4 hours with Giemsa stain, the plates were washed with tap water and air dried.
Measurement of cell migration was performed by microscopically counting the number of cells that had newly migrated within the range of a 1 mm×1 mm block. […] The total number of cells counted in blocks 1 through 5 were then totaled to determine the overall total number of cells. Four fields were counted for each well.
Evaluation was performed determining the cell migration (%) according to the following formula.
Cell migration rate=number of migrating cells to which sample was added×100/number of migrating of control (+)
Control (+) indicates the number of migrating cells in the control well containing M199 (2+).

[3] = test system: human umbilical-vein endothelial cells (HUVEC); experiment: Tube Formation Assay (TFA) Test, HUVEC in collagen gel; details: Homo sapiens, HUVEC, 20 h, 20 hours, 40% or less judged remarkable, read-out: TFA (inhibition rate, %); for inhibition at 1 µg/mL: 1 μg/ml; for inhibition at 10 µg/mL: 10 μg/ml
Outline: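 HUVEC (7th subculture, 1×10^5 cells/ml) attached to collagen gel for 2 h at 37 °C, given sample and overlaid with collagen, then cultured 20 h at 37 °C, 5% CO2 in M-199 with 20% FCS, 30 ng/ml b-FGF and 0.1 μM PMA. Tube length measured by image analysis; % inhibition relative to positive and negative controls.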

Question: For COC(=O)C1=COC(OC(=O)Nc2cccc3ccccc23)C2C1CC1OC12C [compound 37, (1S, 4aS,6S,7R,7aR)-6,7-epoxy-1,4a,5,6,7,7a-hexahydro-7-methyl-1-[(1-naphtyl)carbamoyloxy] cyclopenta [c] pyrane-4-carboxylic acid methylester], which IC50 [1] is on record?
Answer: > 100 µg/mL

Question: And the activity at 1 µg/mL [2]?
Answer: 102%

Question: And the activity at 10 µg/mL [2]?
Answer: 88.6%

Question: What about the inhibition at 1 µg/mL [3] of the same compound?
Answer: 14.1%

Question: What about the inhibition at 10 µg/mL [3] of the same compound?
Answer: 22.6%

Question: What does the source list for COC(=O)C1=CO[C@@H](OC(=O)N2CCOCC2)[C@@H]2[C@@H]1C[C@@H]1O[C@]21C [compound 38, (1S,4aS,6S,7R,7aR)-6,7-epoxy-1,4a,5,6,7,7a-hexahydro-7-methyl-1-(morpholinocarbonyloxy) cyclopenta [c] pyrane-4-carboxylic acid methylester]?
Answer: IC50 [1]: > 100 µg/mL; activity at 1 µg/mL [2]: 92.3%; activity at 10 µg/mL [2]: 61.8%; inhibition at 1 µg/mL [3]: 15.3%; inhibition at 10 µg/mL [3]: -10%

Question: How did the IC50 [1] turn out when CNC(=O)OC1OC=C(C(=O)N2CCN(C)CC2)C2CC3OC3(C)C12 [compound 20, (1S,4aS,6S,7R,7aR)-6,7-epoxy-1,4a,5,6,7,7a-hexahydro-7-methyl-1-(methylcarbamoyloxy) cyclopenta [c]-pyrane-4-carboxylic acid 4-methylpiperazylamide] was run?
Answer: > 100 µg/mL

Question: And the activity at 1 µg/mL [2]?
Answer: 97.4%

Question: What about the activity at 10 µg/mL [2] of the same compound?
Answer: 89.5%

Question: And the inhibition at 1 µg/mL [3]?
Answer: 34.3%

Question: And the inhibition at 10 µg/mL [3]?
Answer: 19.6%

Question: With CNC(=O)O[C@@H]1OC=C(C(=O)NC2CCCCC2)[C@H]2C[C@@H]3O[C@]3(C)[C@H]12 [compound 21, (1S,4aS,6S,7R,7aR)-6,7-epoxy-1,4a,5,6,7,7a-hexahydro-7-methyl-1-(methylcarbamoyloxy) cyclopenta [c]-pyrane-4-carboxylic acid cyclohexylamide] as the compound, how does the IC50 [1] read?
Answer: > 100 µg/mL

Question: And the activity at 1 µg/mL [2]?
Answer: 105%

Question: What about the activity at 10 µg/mL [2] of the same compound?
Answer: 101%

Question: And the inhibition at 1 µg/mL [3]?
Answer: 29.5%

Question: What about the inhibition at 10 µg/mL [3] of the same compound?
Answer: 23.2%

Question: What does the source list for COC(=O)C1=CO[C@@H](OC(N)=O)[C@@H]2[C@@H]1C[C@@H]1O[C@]21C [compound 29, (1S,4aS,6S,7R,7aR)-1-(carbamoyloxy)-6,7-epoxy-1,4a,5,6,7,7a-hexahydro-7-methylcyclopenta [c] pyrane-4-carboxylic acid methylester]?
Answer: IC50 [1]: > 100 µg/mL; activity at 1 µg/mL [2]: 89.9%; activity at 10 µg/mL [2]: 88%; inhibition at 1 µg/mL [3]: 17.7%; inhibition at 10 µg/mL [3]: 29.3%

Question: Which results are given for COC(=O)C1=CO[C@H](OC(=O)NC(=O)c2ccccc2)C2[C@@H]1C[C@@H]1O[C@]21C (stereo in doubt) [compound 42, (1R,4aS,6S,7R,7aR)-1-(benzoylcarbamoyloxy)-6,7-epoxy-1,4a,5,6,7,7a-hexahydro-7-methylcyclopenta [c] pyrane-4-carboxylic acid methylester]?
Answer: IC50 [1]: > 100 µg/mL; activity at 1 µg/mL [2]: 90.4%; activity at 10 µg/mL [2]: 70.6%; inhibition at 1 µg/mL [3]: 12.5%; inhibition at 10 µg/mL [3]: 18.7%

Question: How did the IC50 [1] turn out when COC(=O)C1=CO[C@@H](OC(=O)Nc2ccc(F)cc2)[C@@H]2[C@@H]1C[C@@H]1O[C@]21C [compound 36, (1S,4aS,6S,7R,7aR)-6,7-epoxy-1,4a,5,6,7,7a-hexahydro-1-[(4-fluorophenyl)carbamoyloxy]-7-methylcyclopenta [c] pyrane-4-carboxylic acid methylester] was run?
Answer: > 100 µg/mL

Question: What about the activity at 1 µg/mL [2] of the same compound?
Answer: 95%

Question: What about the activity at 10 µg/mL [2] of the same compound?
Answer: 99.7%

Question: What about the inhibition at 1 µg/mL [3] of the same compound?
Answer: 6.9%

Question: What about the inhibition at 10 µg/mL [3] of the same compound?
Answer: -18.3%

Question: CNC(=O)O[C@@H]1OC=C(C(=O)OC)[C@H]2C[C@@H]3O[C@]3(CF)[C@@H]12 [compound 50, (1S,4aS,6S,7R,7aR)-6,7-epoxy-7-(fluoromethyl)-1-(methylcarbamoloxy)-1,4a,5,6,7,7a-hexahydrocyclopenta [c] pyrane-4-carboxylic acid methylester] was tested. Which IC50 [1] did it give?
Answer: > 100 µg/mL

Question: And the activity at 1 µg/mL [2]?
Answer: 87.9%

Question: What about the activity at 10 µg/mL [2] of the same compound?
Answer: 63.5%

Question: What about the inhibition at 1 µg/mL [3] of the same compound?
Answer: 9.5%

Question: What about the inhibition at 10 µg/mL [3] of the same compound?
Answer: 23.2%

Question: Which IC50 [1] does the source give for CNC(=O)O[C@@H]1OC=C(C(=O)OC)[C@H]2C[C@@H]3OC3(COC(=O)OC)C12 (stereo in doubt) [compound 47, (1S,4aS,6S,7R,7aR)-6,7-epoxy-7-(methoxycarbonyloxymethyl)-1-(methylcarbamoyloxy)-1,4a,5,6,7,7a-hexahydrocyclopenta [c] pyrane-4-carboxylic acid methylester] here?
Answer: > 100 µg/mL

Question: And the activity at 1 µg/mL [2]?
Answer: 95.9%

Question: What about the activity at 10 µg/mL [2] of the same compound?
Answer: 60.5%

Question: And the inhibition at 1 µg/mL [3]?
Answer: -27.3%

Question: And the inhibition at 10 µg/mL [3]?
Answer: 2.6%

Question: What does the source list for CNC(=O)O[C@@H]1OC=C(C(=O)Oc2ccccc2)[C@H]2C[C@@H]3O[C@]3(C)[C@H]12 [compound 13, (1S,4aS,6S,7R,7aR)-6,7-epoxy-1,4a,5,6,7,7a-hexahydro-7-methyl-1-(methylcarbamoyloxy) cyclopenta [c]-pyrane-4-carboxylic acid phenylester]?
Answer: IC50 [1]: 53.3 µg/mL (≈ 154 µM); activity at 1 µg/mL [2]: 94.1%; activity at 10 µg/mL [2]: 94%; inhibition at 1 µg/mL [3]: 36.3%; inhibition at 10 µg/mL [3]: 36.8%

Question: For CNC(=O)O[C@@H]1OC=C(C(=O)NCCc2ccccc2)[C@H]2C[C@@H]3O[C@]3(C)[C@H]12 [compound 28, (1S,4aS,6S,7R,7aR)-6,7-epoxy-1,4a,5,6,7,7a-hexahydro-7-methyl-1-(methylcarbamoyloxy) cyclopenta [c]-pyrane-4-carboxylic acid phenylethylamide], which IC50 [1] is on record?
Answer: > 100 µg/mL

Question: What about the activity at 1 µg/mL [2] of the same compound?
Answer: 94.3%

Question: What about the activity at 10 µg/mL [2] of the same compound?
Answer: 114%

Question: And the inhibition at 1 µg/mL [3]?
Answer: 41.3%

Question: And the inhibition at 10 µg/mL [3]?
Answer: 36.8%

Question: Which results are given for CNC(=O)O[C@@H]1OC=C(C(=O)NCc2ccccc2)[C@H]2C[C@@H]3O[C@]3(C)[C@H]12 [compound 27, (1S,4aS,6S,7R,7aR)-6,7-epoxy-1,4a,5,6,7,7a-hexahydro-7-methyl-1-(methylcarbamoyloxy) cyclopenta [c]-pyrane-4-carboxylic acid benzylamide]?
Answer: IC50 [1]: > 100 µg/mL; activity at 1 µg/mL [2]: 94.5%; activity at 10 µg/mL [2]: 103%; inhibition at 1 µg/mL [3]: 29.1%; inhibition at 10 µg/mL [3]: 32.7%

Question: With CNC(=O)O[C@@H]1OC=C(C(=O)NC)[C@H]2C[C@@H]3O[C@]3(C)[C@H]12 [compound 15, (1S,4aS,6S,7R,7aR)-6,7-epoxy-1,4a,5,6,7,7a-hexahydro-7-methyl-1-(methylcarbamoyloxy) cyclopenta [c]-pyrane-4-carboxylic acid methylamide] as the compound, how does the IC50 [1] read?
Answer: > 100 µg/mL

Question: And the activity at 1 µg/mL [2]?
Answer: 71.1%

Question: What about the activity at 10 µg/mL [2] of the same compound?
Answer: 58.3%

Question: What about the inhibition at 1 µg/mL [3] of the same compound?
Answer: -16%

Question: What about the inhibition at 10 µg/mL [3] of the same compound?
Answer: -8%
